In patent US20080262228A1, “Metabolites of 5-fluoro-8- quinoline and methods of preparation and uses thereof” (Wyeth, priority 2006, published 2008):
Where a name gives a salt, the structure may show the parent alone.

Experiments:
human 5-HT1A receptor [1] = target: T1, human 5-HT1A receptor (Homo sapiens, UniProt P08908); assay: [3H]-8-OH-DPAT displacement radioligand binding; details: h5-HT1A.CHO cell membranes, read-out: Ki value for 5-HT1A affinity
T1 construct: expressed in transfected cells
T1 sequence (P08908 1-422): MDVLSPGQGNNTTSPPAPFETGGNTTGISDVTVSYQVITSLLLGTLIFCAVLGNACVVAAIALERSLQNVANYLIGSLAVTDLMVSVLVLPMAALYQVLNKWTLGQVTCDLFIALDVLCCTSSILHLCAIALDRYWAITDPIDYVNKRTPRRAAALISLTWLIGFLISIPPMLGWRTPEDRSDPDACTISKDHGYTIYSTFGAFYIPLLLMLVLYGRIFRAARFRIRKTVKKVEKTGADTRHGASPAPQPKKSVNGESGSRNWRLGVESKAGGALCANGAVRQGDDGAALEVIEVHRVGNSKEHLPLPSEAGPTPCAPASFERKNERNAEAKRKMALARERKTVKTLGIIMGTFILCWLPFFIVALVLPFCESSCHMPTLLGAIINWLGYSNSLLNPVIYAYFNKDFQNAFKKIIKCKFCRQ
Protocol: (§1) A Ki value is reported. The in vitro functional activity of the compounds of this invention is determined by measuring the effect of the compound on forskolin-induced adenylate cyclase activity in the same cell line. 5-HT1A agonists, such as the full agonist 8-OH-DPAT, inhibit forskolin-induced adenylate cyclase activity, as measured by a reduction in cAMP levels. The compounds of this invention display agonist activity as shown by its ability to induce a decrease in cAMP levels. An EC50 value is reported and the maximum response of the test compound is reported as the percent of a full agonist response (the maximum response obtained with the full agonist 8-OH-DPAT=100%). This percent is expressed as an Emax value.
(§2) The PCR cloning of the human 5-HT1A receptor subtype from a human genomic library has been described previously (Chanda et al., Mol. Pharmacol., 43:516 (1993)). A stable Chinese hamster ovary cell line expressing the human 5-HT1A receptor subtype (h5-HT1A.CHO cells) was employed throughout this study. Cells were maintained in DMEM supplemented with 10% fetal calf serum, non-essential amino acids and penicillin/streptomycin.
Radioligand binding assays can be performed as described in Dunlop, J. et al., J. Pharmacol. and Toxicol. Methods 40: 47-55 (1998). […] Non-specific binding is determined in the presence of 10 μM 5HT. […]

human 5-HT1A receptor [2] = target: T1, human 5-HT1A receptor; assay: Forskolin-induced adenylate cyclase (cAMP) functional assay in h5-HT1A.CHO cells; assay type: cell-based
Protocol: as §1
as §2, with “Cells were maintained in DMEM supplemented with 10% fetal calf serum, non-essential amino acids and penicillin/streptomycin.” left out
Measurements can be performed as described in Dunlop, J. et al., supra. […] Functional activity is assessed by treating the cells with forskolin (1 uM final concentration) followed immediately by test compound (6 different concentrations) for an additional 10 min. at 37° C. […]

Ki (human 5-HT1A receptor [1]): 0.47 nM
EC50 (human 5-HT1A receptor [2]; decrease of forskolin-induced cAMP, read-out: EC50 value for in vitro agonist activity): 0.39 nM
Emax (human 5-HT1A receptor [2]; percent of full agonist response (8-OH-DPAT=100%)): 92%
Structure (SMILES): Oc1cc(N2CCN(C3CCN(c4ccc(F)c5cccnc45)CC3)CC2)c2ncccc2c1 [Metabolite M21, 8-{4-[1-(5-fluoroquinolin-8-yl)piperidin-4-yl]piperazin-1-yl}quinolin-6-ol trihydrochloride]
